How the values were obtained:
[1] = molecular target: T1, Cysteinyl leukotriene receptor 1 (Homo sapiens, UniProt Q9Y271); assay: In vitro inhibitory activity against Cysteinyl leukotriene D4 receptor from human lung membrane; type: tissue-based
T1 sequence (Q9Y271 whole entry): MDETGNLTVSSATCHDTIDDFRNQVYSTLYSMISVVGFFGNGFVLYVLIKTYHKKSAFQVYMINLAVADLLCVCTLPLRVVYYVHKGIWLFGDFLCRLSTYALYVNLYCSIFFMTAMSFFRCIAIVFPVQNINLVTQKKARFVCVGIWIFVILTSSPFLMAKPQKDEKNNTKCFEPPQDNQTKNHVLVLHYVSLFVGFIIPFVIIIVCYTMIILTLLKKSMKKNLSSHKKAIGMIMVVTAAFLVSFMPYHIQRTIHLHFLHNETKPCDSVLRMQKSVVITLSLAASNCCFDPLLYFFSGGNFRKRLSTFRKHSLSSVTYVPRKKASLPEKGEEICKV

[2] = molecular target: T2, Cysteinyl leukotriene receptor 1 (Cavia porcellus, UniProt Q2NNR5); assay: Binding affinity against Cysteinyl leukotriene D4 receptor from guinea pig lung membrane; type: tissue-based
T2 sequence (Q2NNR5 whole entry): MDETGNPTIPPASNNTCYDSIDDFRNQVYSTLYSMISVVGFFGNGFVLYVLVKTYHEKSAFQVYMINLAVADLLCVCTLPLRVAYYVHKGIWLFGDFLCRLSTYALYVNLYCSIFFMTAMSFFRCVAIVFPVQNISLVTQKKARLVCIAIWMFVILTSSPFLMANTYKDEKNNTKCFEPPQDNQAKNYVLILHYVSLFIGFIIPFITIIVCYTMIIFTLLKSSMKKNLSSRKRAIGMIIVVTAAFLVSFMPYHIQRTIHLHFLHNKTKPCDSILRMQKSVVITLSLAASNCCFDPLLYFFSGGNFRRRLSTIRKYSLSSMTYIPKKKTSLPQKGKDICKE

Cavia porcellus = organism: Cavia porcellus; assay: Antagonist activity of LTD4-induced contractions of isolated guinea pig trachea; type: functional
Rattus norvegicus = organism: Rattus norvegicus; assay: Tested for antigen-induced dyspnea in hyperactive rats; type: functional

Row | IC50 [1] | IC50 [2] | SMILES | -Log KB (Cavia porcellus) | ED50 (Rattus norvegicus)
1 | 3.1 nM | 0.77 nM | CN(C)C(=O)CCSC(SCCC(=O)[O-])c1cccc(/C=C/c2ccc3ccc(Cl)cc3n2)c1.[Na+] (stereo not drawn) | 9 | 0.097 mg/kg
2 | 8 nM | 3.2 nM | CN(C)C(=O)CCS[C@H](SCCC(=O)O)c1cccc(/C=C/c2ccc3ccc(Cl)cc3n2)c1 [VERLUKAST] | 8.7 | 0.028 mg/kg
